We go through 24 compounds from PubChem BioAssay AID214 (DTP/NCI, 2004).

This experiment relates to B6C3F1 mice, colon carcinoma 38 s.c., T/C. Put plainly: NCI In Vivo Anticancer Drug Screen. Data for tumor model Colon Carcinoma 38 (subcutaneous) in B6C3F1 mice. The conditions noted are these: endpoint: median tumor weight (est.), higher = larger tumour. Here is the method:
The antitumor activity of compounds was measured in mice bearing transplantable tumors. Survival or tumor size were measured and the results are expressed as the measurement made in the treated group (T) divided by the measurement made in the vehicle treated control group (C). The tumor model used in this assay is Colon Carcinoma 38 (subcutaneous) in B6C3F1 mice

Setting [1] is: dose: 100.0 mg/kg/injection, schedule: Q07DX002 (ip), vehicle: saline.
Where [2] appears, read: dose: 200.0 mg/kg/injection, schedule: Q07DX002 (ip), vehicle: saline.
The mark [3] stands for this setting: dose: 6.25 mg/kg/injection, schedule: Q07DX002 (ip), vehicle: saline with Tween-80.
Setting [4] is: dose: 12.5 mg/kg/injection, schedule: Q07DX002 (ip), vehicle: saline with Tween-80.
The mark [5] stands for this setting: dose: 25.0 mg/kg/injection, schedule: Q07DX002 (ip), vehicle: saline with Tween-80.
Setting [6] is: dose: 50.0 mg/kg/injection, schedule: Q07DX002 (ip), vehicle: saline with Tween-80.
Setting [7] is: dose: 50.0 mg/kg/injection, schedule: Q07DX002 (ip), vehicle: water.
Setting [8] is: dose: 25.0 mg/kg/injection, schedule: Q07DX002 (ip), vehicle: saline.
The mark [9] stands for this setting: dose: 50.0 mg/kg/injection, schedule: Q07DX002 (ip), vehicle: saline.
Setting [10] is: dose: 200.0 mg/kg/injection, schedule: Q07DX002 (ip), vehicle: saline with Tween-80.
The mark [11] stands for this setting: dose: 400.0 mg/kg/injection, schedule: Q07DX002 (ip), vehicle: saline with Tween-80.
Where [12] appears, read: dose: 800.0 mg/kg/injection, schedule: Q07DX002 (ip), vehicle: saline with Tween-80.
[13] abbreviates: dose: 100.0 mg/kg/injection, schedule: Q07DX002 (ip), vehicle: saline with Tween-80.

Values joined by “and” are separate entries in the source; they are usually repeats but may differ in a detail not shown here. Equal values may be shown once. Results filed as inconclusive are left out.

Consider `CSc1ncnc2c1ncn2C1OC(CO)C(O)C1O` (stereo unspecified), for which the T/C was 98 % of control (dose: 25.0 mg/kg/injection, schedule: Q07DX002 (ip), vehicle: saline + alcohol); 51 % of control (dose: 50.0 mg/kg/injection, schedule: Q07DX002 (ip), vehicle: saline + alcohol); 49 % of control (dose: 100.0 mg/kg/injection, schedule: Q07DX002 (ip), vehicle: saline + alcohol); 32 % of control (dose: 200.0 mg/kg/injection, schedule: Q07DX002 (ip), vehicle: saline + alcohol).

On to `O=C(O)Cc1cccc2c(=O)cc(Cc3ccccc3)oc12`, for which the T/C is 60 % of control under setting [1]; 111 % of control under setting [2]; 122 % of control (dose: 400.0 mg/kg/injection, schedule: Q07DX002 (ip), vehicle: saline).

Turning to `Nc1nc(N)c2c(ccc3c2ccn3Cc2cccc([N+](=O)[O-])c2)n1`, the T/C was 61 % of control (dose: 3.13 mg/kg/injection, schedule: Q07DX002 (ip), vehicle: saline with Tween-80); 102 % of control under setting [3]; 85 % of control under setting [4]; 57 % of control under setting [5]; 12 % of control under setting [6].

With `CNC(=O)c1cccc2c(Nc3ccc(NS(C)(=O)=O)cc3OC)c3cccc(C)c3nc12`, the T/C is, setting by setting: (dose: 6.25 mg/kg/injection, schedule: Q07DX002 (ip), vehicle: water) 60 % of control; (dose: 12.5 mg/kg/injection, schedule: Q07DX002 (ip), vehicle: water) 48 % of control; (dose: 25.0 mg/kg/injection, schedule: Q07DX002 (ip), vehicle: water) 17 % of control; under setting [7], 4 % of control.

`CCCCNc1ccc2nnc(C)n2n1`: the T/C was 98 % of control (dose: 50.0 mg/kg/injection, schedule: Q07DX002 (ip), vehicle: DMSO) and 114 % of control (dose: 200.0 mg/kg/injection, schedule: Q07DX002 (ip), vehicle: DMSO).

`CCNC(=O)[B-][N+](C)(C)C`: the T/C was 101 % of control (dose: 25.0 mg/kg/injection, schedule: Q07DX002 (ip), vehicle: Klucel (hydroxypropylcellulose) (HPC)); 55 % of control (dose: 50.0 mg/kg/injection, schedule: Q07DX002 (ip), vehicle: Klucel (hydroxypropylcellulose) (HPC)); 87 % of control (dose: 100.0 mg/kg/injection, schedule: Q07DX002 (ip), vehicle: Klucel (hydroxypropylcellulose) (HPC)); 107 % of control (dose: 200.0 mg/kg/injection, schedule: Q07DX002 (ip), vehicle: Klucel (hydroxypropylcellulose) (HPC)); 81 % of control (dose: 400.0 mg/kg/injection, schedule: Q07DX002 (ip), vehicle: Klucel (hydroxypropylcellulose) (HPC)).

For `O=P1(N(CCCl)CCCl)NCCCO1` (stereo unspecified), the T/C was 44 % of control under setting [8], 52 % of control under setting [9], 13 % of control under setting [1] and 7 % of control under setting [2].

For the compound `Oc1cc2ccccc2c(-c2c(O)c(O)cc3ccccc23)c1O`, the T/C by setting is: under setting [10], 70 % of control; under setting [11], 62 % of control; under setting [12], 104 % of control.

As to `NC(=O)c1ccc[n+](Cc2c(Cl)cccc2Cl)c1`, the T/C is 86 % of control under setting [8] and 94 % of control under setting [9].

Consider `CC(=O)C(=O)O.CC(=O)C(=O)O.[NH-]C1CCCCC1[NH-].[Pt+2]` (stereo unspecified), for which the T/C (dose: 6.25 mg/kg/injection, schedule: Q07DX002 (ip), vehicle: dextrose) is 83 % of control; the T/C (dose: 12.5 mg/kg/injection, schedule: Q07DX002 (ip), vehicle: dextrose) was 31 % of control; the T/C (dose: 25.0 mg/kg/injection, schedule: Q07DX002 (ip), vehicle: dextrose) is 31 % of control; the T/C (dose: 50.0 mg/kg/injection, schedule: Q07DX002 (ip), vehicle: dextrose) is 16 % of control.

For the compound `O=C1[C@H]2CCC[C@H]2[C@H]2CCC[C@@H]12`, the T/C runs as follows: under setting [5], 106 % of control and 109 % of control; under setting [6], 95 % of control and 107 % of control; under setting [13], 41 % of control; under setting [10], 100 % of control and 116 % of control; under setting [11], 104 % of control.

With `COc1cccc(-c2cc(=O)c3cccc(CC(=O)O)c3o2)c1`, under setting [1], the T/C was 3 % of control.

`NS(=O)(=O)OCCCCCCCOS(N)(=O)=O`: the T/C was 214 % of control under setting [4]; 270 % of control under setting [5]; 192 % of control under setting [6]; 94 % of control under setting [13]; 104 % of control under setting [10].

With `Nc1ccn(C2OC(CO)C(O)C2O)c(=O)n1` (stereo unspecified), the T/C is 70 % of control (dose: 300.0 mg/kg/injection, schedule: Q07DX002 (ip), vehicle: saline); 90 % of control (dose: 600.0 mg/kg/injection, schedule: Q07DX002 (ip), vehicle: saline); 56 % of control (dose: 1200.0 mg/kg/injection, schedule: Q07DX002 (ip), vehicle: saline); 64 % of control (dose: 2400.0 mg/kg/injection, schedule: Q07DX002 (ip), vehicle: saline).

`CCCCCc1cc(O)c2c(c1)OC(C)(C)[C@@H]1CCC(C)=C[C@@H]21`: the T/C reads like this: (dose: 200.0 mg/kg/injection, schedule: Q07DX002 (ip), vehicle: other) 81 % of control; (dose: 400.0 mg/kg/injection, schedule: Q07DX002 (ip), vehicle: other) 98 % of control.

Take `CCOC(=O)c1c[nH]c2oc(/C=N/N3CC(CN4CCOCC4)OC3=O)cc2c1=O` (stereo unspecified): the T/C reads like this: (dose: 150.0 mg/kg/injection, schedule: Q07DX002 (ip), vehicle: other) 83 % of control; (dose: 300.0 mg/kg/injection, schedule: Q07DX002 (ip), vehicle: other) 56 % of control; (dose: 600.0 mg/kg/injection, schedule: Q07DX002 (ip), vehicle: other) 29 % of control.

In the case of `[Na+]`, the T/C under setting [7] was 100 % of control; the T/C (dose: 100.0 mg/kg/injection, schedule: Q07DX002 (ip), vehicle: water) was 57 % of control; the T/C (dose: 200.0 mg/kg/injection, schedule: Q07DX002 (ip), vehicle: water) was 68 % of control; the T/C (dose: 400.0 mg/kg/injection, schedule: Q07DX002 (ip), vehicle: water) was 58 % of control; the T/C (dose: 800.0 mg/kg/injection, schedule: Q07DX002 (ip), vehicle: water) was 63 % of control.

For `O=c1[nH]c(=O)n([C@H]2CCCO2)cc1F`, the T/C is, setting by setting: (dose: 80.0 mg/kg/injection, schedule: Q07DX003 (ip), vehicle: Klucel (hydroxypropylcellulose) (HPC)) 51 % of control; (dose: 160.0 mg/kg/injection, schedule: Q07DX003 (ip), vehicle: Klucel (hydroxypropylcellulose) (HPC)) 85 % of control; (dose: 320.0 mg/kg/injection, schedule: Q07DX003 (ip), vehicle: Klucel (hydroxypropylcellulose) (HPC)) 80 % of control; (dose: 640.0 mg/kg/injection, schedule: Q07DX003 (ip), vehicle: Klucel (hydroxypropylcellulose) (HPC)) 25 % of control.

Consider `CC(C)NCC(O)COc1ccc(O)c(O)c1` (stereo unspecified), for which the T/C is 97 % of control under setting [9] and 94 % of control under setting [1].

With `O=c1[nH]cnc2[nH]ncc12`, the T/C is 83 % of control (dose: 25.0 mg/kg/injection, schedule: Q07DX002 (ip), vehicle: suspension in saline); 69 % of control (dose: 50.0 mg/kg/injection, schedule: Q07DX002 (ip), vehicle: suspension in saline); 88 % of control (dose: 100.0 mg/kg/injection, schedule: Q07DX002 (ip), vehicle: suspension in saline).

Regarding `CC(=O)N(C)O`, the T/C runs as follows: under setting [13], 124 % of control; under setting [10], 116 % of control; under setting [11], 91 % of control; under setting [12], 101 % of control.

As for `CN(C)CCCNc1c2ccccc2nc2cccc([N+](=O)[O-])c12`, the T/C is 104 % of control (dose: 0.03 mg/kg/injection, schedule: Q07DX002 (ip), vehicle: saline); 79 % of control and 221 % of control (dose: 0.06 mg/kg/injection, schedule: Q07DX002 (ip), vehicle: saline).

In the case of `CCC1=C2C(=O)c3ccccc3C2=C(C)S(=O)(=O)O1`, the T/C under setting [3] was 153 % of control.

Consider `O=C(CCCN1CCC(C(O)c2ccc(F)cc2)CC1)c1ccc(F)cc1` (stereo unspecified), for which the T/C is 59 % of control under setting [4], 49 % of control under setting [5], 92 % of control under setting [6] and 67 % of control under setting [13].
